Measurements published in patent US10071103B2, “Treatments for resistant acne” (VYOME BIOSCIENCES PVT. LTD., priority 2014, dated 2018).
≈ marks a conversion by molar mass, not a printed value. Entries after “also recorded” stand apart in the source; their conditions may differ. Where a name gives a salt, the structure may show the parent alone.

Legend:
[1] = pH dependent solubility of besifloxacin.HCl; assay type: physicochemical; settings: pH of about 4.5 or below solubilizes the drug
Excerpt: Preparation of drug-loaded (suspended form) gel via a conventional method usually leads to exposure of the drug to a wide range of pH conditions, which may lead to, in some instances, solubilization of the drug, and then reprecipitation. This solubilization-reprecipitation phenomenon in most cases leads to change in original particle size, impurity profile or crystal pattern, or others. […] The solubilized besifloxacin then, upon increase in pH (during formulation preparation), reprecipitates, which may result in one or more unwanted changes.

[2] = test system: IL-6; test: P. acnes-induced IL-6 release in THP-1 cells (ELISA); assay type: cell-based
Description: (§1) Method: Preparation of Stimulant for Inflammation: P. acnes culture suspension was prepared in PBS and the cell number in the suspension was adjusted to approximately 5×10^8 CFU/ml by measuring the cell density using a Densimat. The bacterial suspension was then heat killed at 80° C. for 30 min and stored at −80° C. until further use.
(§2) Cells were seeded in a 96-well format (2×10^5 THP-1 cells per well) in media containing 10% FBS. The cells were stimulated to induce inflammatory cytokines using 3 McFarland equivalent heat-killed P. acnes. Cells in control wells were treated with PBS. One hour after induction with P. acnes, test agents were added to the induced cells at appropriate concentrations to be tested (compound 91 at 25 μg/ml). The plates were incubated at 37° C. for 24 hours. After 24 h, the plates were centrifuged to pellet the cells and the supernatants were collected. The cell culture supernatants thus obtained were analyzed for levels of cytokines (IL-1α, IL-1β, IL-6 and IL-8) by ELISA using R&D Systems kits for individual cytokines following the manufacturer's instructions.
as §1, with “Preparation” for “Method: Preparation”, “stimulant” for “Stimulant”, “inflammation:” for “Inflammation:”
(§3) Cells were seeded in a 96-well format (2×10^5 THP-1 cells per well) in media containing 10% FBS. The cells were stimulated to induce inflammatory cytokines using 3 McFarland equivalent heat-killed P. acnes. Cells in control wells were treated with PBS. One hour after induction with P. acnes, test agents were added to the induced cells at appropriate concentrations (Besifloxacin at 10 and 30 μg/ml; Adapalene at 0.04 and 0.4 μg/ml). The plates were incubated at 37° C. for 24 hours. After 24 h, the plates were centrifuged to pellet the cells and the supernatants were collected. The cell culture supernatants thus obtained were analyzed for cytokine levels (IL-6 and IL-8) by ELISA using R&D Systems kits for individual cytokines following the manufacturer's instructions.

[3] = test system: IL-8; test: P. acnes-induced IL-8 release in THP-1 cells (ELISA); assay type: cell-based
Description: as §1, §2
as §1, with “Preparation” for “Method: Preparation”, “stimulant” for “Stimulant”, “inflammation:” for “Inflammation:”
as §3

[4] = test system: THP-1 cells; test: Viability of THP-1 cells under treatment; assay type: cell-based; settings: Example 61; each tested condition
[5] = test system: P. acnes CCARM 9010; test: MIC by micro broth dilution (Alamar blue), clindamycin-resistant/nonresponsive P. acnes; assay type: cell-based, Propionibacterium acnes; settings: for MIC: Cutibacterium acnes, CCARM9010, read-out: MIC Resistant P. acnes (9010) strain; for Activity / bacterial killing, dose response curve (in words): clindamycin-nonresponsive CCARM 9010
Description: (§4) The plates were incubated at 37° C. for 48 h under anaerobic condition for P. acnes and 37° C. for 24 h for S. aureus The plates were read under Bio-Rad plate reader at 595 nm for optical density to generate the dose-response curves. The MIC of the test compound was recorded by addition of Alamar blue dye.
(§5) P. acnes (MTCC 3297, MTCC 1951& CCARM 9010) are cultured in Brain Heart Infusion (BHI) Broth at 37° C. for 48-72 h under anaerobic condition. The test compounds/formulations are initially diluted with suitable solvent and further diluted with BHI broth to get the required concentrations. Samples (100 μl) of different concentrations (prepared by serial dilution) are added to 96-well plate. To the wells, 100 μl of P. acnes BHI broth culture is added [culture turbidity adjusted against 0.5 McFarland standard (approx 1.5×10^8), and further diluted 100-fold with sterile BHI broth]. In addition Growth Control and Sterility Control are created using 100 μl each of P. acnes BHI broth culture and plain BHI broth, respectively.
(§6) Plates are incubated at 37° C. for 48-72 hrs under anaerobic condition. The plate is read under Bio-Rad plate reader @ 595 nm for optical density to generate the dose-response curves. The MIC of the test compound is recorded by addition of Alamar blue dye.

[6] = test system: S. aureus MTCC 6908; test: MIC by micro broth dilution, laboratory S. aureus strain; assay type: cell-based, Staphylococcus aureus; settings: for MIC: Staphylococcus aureus, MTCC6908, Table 6, read-out: MIC Susceptible S. aureus (6908) strain
Description: as §4
S. aureus MTCC 6908 were grown in Tryptone Soya Agar (TSA) at 37° C. for 24 hours. […] Plates were incubated at 37° C. for 24 hours. […] (2) Zone of Inhibition (ZOI): S. aureus MTCC 6908 were grown in Tryptone Soya Agar (TSA) at 37° C. for 24 hours. BHA plates are spreaded with 100 μl of 0.5 McFarland standard equal bacterial suspension. Test samples (drugs/formulations) were dissolved in water/solvent based on the solubility. Sterile disc (6 mm) were loaded with 10 μl of test samples (of various concentration of drug), and were placed above the spreaded plates. Plates were incubated at 37 C for 24 h, followed by ZOI measurement. (3) Time Kill Assay: 0.5 McFarland standard equal S. aureus culture was prepared in sterile water. Besifloxacin gels were diluted in Tryptone Soya broth (TSB) to get final concentration of 25 μg/ml. Then 900 μl of S. aureus 0.5 McFarland standard equal culture and 100 μl of diluted Besifloxacin gel was mixed to obtain final Besifloxacin concentration, 2.5 μl g/ml. Total reaction mixture (1 ml) was incubated at 37° C. in a tube rotator. After 2 and 6 h exposure, bacterial suspension was placed on Tryptone soya agar plate and incubated at 37° C. for 24 h.
Inoculated plates were incubated at 37° C. for 24 hours.

[7] = target: T1, E. coli DNA gyrase (Escherichia coli, UniProt P0AES4+P0AES6); test: DNA gyrase super-coiling activity assay (Topogen kit, relaxed pHOT1 plasmid); assay type: biochemical; settings: 1 μM and 2.5 μM
T1 construct: purchased Topogen Inc
T1 sequence (P0AES4 whole entry, one chain of several): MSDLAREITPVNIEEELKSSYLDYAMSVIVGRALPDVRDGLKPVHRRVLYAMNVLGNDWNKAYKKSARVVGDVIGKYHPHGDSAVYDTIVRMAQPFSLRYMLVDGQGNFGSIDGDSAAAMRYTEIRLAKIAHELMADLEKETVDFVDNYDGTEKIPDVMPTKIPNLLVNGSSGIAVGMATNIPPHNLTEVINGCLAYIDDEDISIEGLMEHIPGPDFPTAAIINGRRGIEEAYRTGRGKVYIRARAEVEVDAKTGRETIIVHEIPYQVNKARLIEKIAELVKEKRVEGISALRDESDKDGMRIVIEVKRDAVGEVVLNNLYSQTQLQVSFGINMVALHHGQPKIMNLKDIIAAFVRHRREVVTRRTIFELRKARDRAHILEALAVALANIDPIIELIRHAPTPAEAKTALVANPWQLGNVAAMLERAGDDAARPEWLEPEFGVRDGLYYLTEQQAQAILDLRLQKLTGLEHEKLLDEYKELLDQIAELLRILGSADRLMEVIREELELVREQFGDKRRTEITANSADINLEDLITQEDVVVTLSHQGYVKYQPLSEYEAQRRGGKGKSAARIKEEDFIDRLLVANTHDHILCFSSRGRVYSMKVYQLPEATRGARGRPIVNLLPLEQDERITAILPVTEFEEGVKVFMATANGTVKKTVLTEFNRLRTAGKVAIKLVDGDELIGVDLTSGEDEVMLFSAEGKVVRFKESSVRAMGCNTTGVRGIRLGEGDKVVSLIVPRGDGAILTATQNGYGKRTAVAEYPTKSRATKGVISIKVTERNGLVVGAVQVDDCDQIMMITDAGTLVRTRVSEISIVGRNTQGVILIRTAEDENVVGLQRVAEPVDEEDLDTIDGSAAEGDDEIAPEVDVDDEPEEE
Description: DNA super-coiling activity was assayed using DNA gyrase assay kit (Topogen Inc.) with relaxed pHOT1 E. coli plasmid DNA according to manufacturer's protocol. The standard reaction mixture (20 μl) contained 35 mM Tris-HCl (pH 7.5), 24 mM KCl, 4 mM MgCl2, 2 mM dithiothreitol, 1.8 mM spermidine, 1 mM ATP, 6.5% glycerol, 0.1 mg/ml bovine serum albumin (BSA), 10 μg/ml relaxed pHOT1 plasmid DNA and 1 U of DNA gyrase. The reaction mixture was incubated at 37° C. for 1 h in presence of selected compounds/fluoroquinolone at different concentrations. The reaction was terminated by addition of ⅕ volume of loading dye (4 μl) followed by proteinase K (50 μg/ml) and again incubated at 37° C. for half an hour. 20 μl chloroform/isoamyl alcohol (24:1) was added to each tube and vortexed briefly. Thereafter, the blue aqueous phase was separated out and analyzed by 1% agarose gel electrophoresis. The gel was stained by ethidium bromide for half an hour and destained with water for 15 mins. The gel was then visualized in a trans-illuminator and photographed.

[8] = test system: P. acnes MTCC 1951; test: MIC by micro broth dilution (Alamar blue), clindamycin-susceptible P. acnes; assay type: cell-based, Propionibacterium acnes; settings: for MIC: Cutibacterium acnes, MTCC1951, read-out: MIC Susceptible P. acnes (1951) strain; for Activity / bacterial killing, dose response curve (in words): clindamycin-susceptible MTCC 1951
Description: as §4, §5, §6
BHI broth and BHI agar media were prepared as per the manufacturer's instruction and autoclaved at 121° C. for 15 minutes. […] For MIC determination testing, gels are dissolved in the solvent and further diluted with BHI broth. Then, 96 wells plate are filled with 100 μl of BHI broth containing drug with different concentration to get the final concentrations of 0.06, 0.13, 0.25, 0.5, 1 and 2 μg/ml in different lanes (lane 1 to lane 6). Remaining lanes of the 96 well plate are used as growth control and sterility control. Finally, P. acnes culture suspension (approx 1.5×10^6) is added in all the wells except sterility control wells and plate is incubated at 37° C. for 48-72 h under anaerobic condition. At the end of 72 h, Alamar blue solution (20 μl) is added into the wells and incubated at 37° C. for 2 h. Plate is visualized for bacterial inhibitions and MIC values of the tested samples are determined. […]

[9] = test system: IL-1β; test: P. acnes-induced IL-1β release in THP-1 cells (ELISA); assay type: cell-based; settings: 25 μg/ml, 100% = P. acnes induced cells
Description: as §1, §2

[10] = test system: IL-1α; test: P. acnes-induced IL-1α release in THP-1 cells (ELISA); assay type: cell-based; settings: 25 μg/ml, 100% = P. acnes induced cells
Description: as §1, §2

[11] = 25 μg/ml, THP-1 cells, 100% = P. acnes induced cells
[12] = Cells + P. acnes + 0.4 μg/ml (positive control), THP-1 cells, 24 h, Table 70
[13] = Cells + P. acnes + Dexamethasone 0.4 μg/ml, THP-1 cells, Table 71

Compound	MIC [5]	Activity / bacterial killing, dose response curve (in words) [5]	MIC [6]	Inhibition of super-coiling activity of DNA gyrase (in words) [7]	MIC [8]	Activity / bacterial killing, dose response curve (in words) [8]	other results
N[C@@H]1CCCCN(c2c(F)cc3c(=O)c(C(=O)O)cn(C4CC4)c3c2Cl)C1 [Besifloxacin.HCl, besifloxacin hydrochloride]	–	–	–	–	–	–	Solubility (in words) [1]: pH dependent solubility; Effect on P. acnes-induced IL-6 levels (in words) ([2]; Example 61, besifloxacin 10, 30 μg/ml, adapalene 0.04, 0.4 μg/ml, hydrochloride): significant dose-dependent decrease; also recorded: impart individual anti-inflammatory effects; Reduction in IL-6 levels compared to untreated control ([2]; besifloxacin.HCl alone at 10 μg/ml): approximately 40%; Effect on P. acnes-induced IL-8 levels (in words) ([3]; Example 61, besifloxacin 10, 30 μg/ml, adapalene 0.04, 0.4 μg/ml): does not show similar effect; Cell viability compared to untreated cells [4]: over 80%
Cc1oc(=O)oc1CN1CCN(c2cc3c(cc2F)c(=O)c(C(=O)OC(CCl)Cn2c([N+](=O)[O-])cnc2C)c2n3C(C)S2)CC1 (stereo not drawn) [Compound 94, 6-Fluoro-1-methyl-7-[4-(5-methyl-2-oxo-[1,3]dioxol-4-ylmethyl)-piperazin-1-yl]-4-oxo-4H-2-thia-8b-aza-cyclobuta[a]naphthalene-3-carboxylic acid 1-chloromethyl-2-(2-methyl-5-nitro-imidazol-1-yl)-ethyl ester]	3 µg/mL (≈ 4.52 µM)	hardly showed any activity	2.8 µg/mL (≈ 4.22 µM)	able to inhibit the super-coiling activity	3 µg/mL (≈ 4.52 µM)	hardly showed any activity	–
CCCCCCCCCCCC(=O)OC(CN1CCN(c2cc3c(cc2F)c(=O)c(C(=O)O)c2n3C(C)S2)CC1)Cn1c([N+](=O)[O-])cnc1C (stereo not drawn) [Compound 113, 7-{4-[2-Dodecanoyloxy-3-(2-methyl-5-nitro-imidazol-1-yl)-propyl]-piperazin-1-yl}-6-fluoro-1-methyl-4-oxo-4H-2-thia-8b-aza-cyclobuta[a]naphthalene-3-carboxylic acid]	8 µg/mL (≈ 11.2 µM)	hardly showed any activity	> 8.2 µg/mL	able to inhibit the super-coiling activity	8.2 µg/mL (≈ 11.5 µM)	hardly showed any activity	Activity against S. aureus strain (in words) [6]: least activities
Cc1ncc([N+](=O)[O-])n1CC(O)CCCCN1CCN(c2cc3c(cc2F)c(=O)c(C(=O)O)c2n3C(C)S2)CC1 (stereo not drawn) [Compound 115, 6-Fluoro-7-{4-[5-hydroxy-6-(2-methyl-5-nitro-imidazol-1-yl)-hexyl]-piperazin-1-yl}-1-methyl-4-oxo-4H-2-thia-8b-aza-cyclobuta[a]naphthalene-3-carboxylic acid]	0.8 µg/mL (≈ 1.39 µM)	more than double MIC values	1.6 µg/mL (≈ 2.78 µM)	able to inhibit the super-coiling activity	0.4 µg/mL (≈ 0.696 µM)	more than double MIC values	–
Cc1ncc([N+](=O)[O-])n1CC(O)CCN1CCN(c2cc3c(cc2F)c(=O)c(C(=O)O)c2n3C(C)S2)CC1 (stereo not drawn) [Compound 116, 6-Fluoro-7-{4-[3-hydroxy-4-(2-methyl-5-nitro-imidazol-1-yl)-butyl]-piperazin-1-yl}-1-methyl-4-oxo-4H-2-thia-8b-aza-cyclobuta[a]naphthalene-3-carboxylic acid]	0.8 µg/mL (≈ 1.46 µM)	more than double MIC values	1.64 µg/mL (≈ 3 µM)	able to inhibit the super-coiling activity; also recorded: highly potent; also recorded: best gyrase inhibiting activity	0.4 µg/mL (≈ 0.732 µM)	more than double MIC values	–
C[C@@H]1C[C@H]2[C@@H]3CCC4=CC(=O)C=C[C@]4(C)[C@@]3(F)[C@@H](O)C[C@]2(C)[C@@]1(O)C(=O)CO [Dexamethasone]	–	–	–	–	–	–	Percentage reduction in P. acnes induced IL-1β release [9]: 64.73%; Percentage reduction in P. acnes induced IL-6 release [2, 11]: 99.54%; Expression of Cytokines IL-6 (pg/ml) Mean [2, 12]: 2.15 pg/mL; Expression of Cytokines IL-6 (pg/ml) Mean [2, 13]: 2.15 pg/mL; Reduction in IL-6 levels ([2]; Example 61, positive control): ~100%; Percentage reduction in P. acnes induced IL-8 release [3, 11]: 58.78%; Expression of Cytokines IL-8 (pg/ml) Mean [3, 12]: 1080.8 pg/mL; Expression of Cytokines IL-8 (pg/ml) Mean [3, 13]: 1080.76 pg/mL; Percentage reduction in P. acnes induced IL-1α release [10]: 53.83%
